From patent US20070292403A1, “Methods of treating a neurological disorder with creatine monohydrate” (priority 2006, published 2007)

Legend:
[1] = parameters: species or system human; settings: in vivo
Experimental: A two-phase open-label study was conducted to better determine an optimal dose of creatine symptomatic subjects with Huntington's disease. A dose-escalation study (10-40 grams per day) was conducted to determine the maximally tolerated dose (MTD) followed by a de-escalation phase to assess whether brain and serum levels of creatine might be maximal at doses lower than the MTD. Ten subjects were enrolled and followed prospectively for two weeks at each done level increasing in 5-gram increments during dose escalation that lasted 13 weeks. Assessments at each visit included UHDRS, EKG, vital signs, clinical safety and research labs. MRI spectroscopy was conducted prior to baseline at peak done (40 grams) and one month after de-escalation to either 30 or 15 grams daily. To determine an optimal dose, pharmacokinetic as well as clinical data were considered. Once the maximal dose was reached, subjects were assigned one of two lower doses previously taking (15 grams a day (n=5) or 30 grams a day (n=5)). Serum creatine was assessed at baseline, at the end of each 2-week dose escalation step and at the end of the de-escalation phase to assess the correspondence between serum and brain levels of creatine at steady state.

cortical thinning in HD = test: Example 3: morphometric neuroimaging, rate of cortical thinning; assay type: in vivo, human; settings: high dose creatine
Experimental: High dose creatine slows cortical thinning. Morphometric neuroimaging was performed in all subjects. Longitudinal data from up to three years prior to initiating creatine was available on 6 or the 10 subjects. The rate of thinning of cortical regions in HD was modeled based on the longitudinal data and a change in rate was determined for each region of the group while on creatine. […] Creatine reduced the rate of thinning in almost every region, and the rate of change was statistically significant for several regions and amounted to about a 30% slowing. There was no effect on the rate of caudate volume loss (p=0.67), rate of putamen volume loss, or on total brain volume. The lack of an effect on striatal volumes likely reflects the fact that in these individuals, caudate and putamen volumes were already reduced by more than half and the lack of change in whole brain by the fact that small proportion of the brain is represented by the detected change.

[2] = Example 1: serum creatine levels and brain creatine by magnetic resonance spectroscopy; assay type: in vivo, human; settings: for Increase in absolute creatine concentration by MRS: by week 16, 8 g/day, p<0.05, returned to baseline at week 24
Text: Study protocol. Subjects were screened within 25 days of randomization (baseline visit). Screening included assessment of eligibility criteria, medical history, physical examination, Unified Huntington's Disease Rating Scale (UHDRS), EKG, DNA analysis, complete blood count, chemistry panel, and urinalysis. Subjects were on study drug (creatine or placebo) for 16 weeks, followed by an 8-week washout. Study visits occurred at baseline, weeks 8, 16, and 24 with telephone contacts at weeks 1, 10 and 20. Physical examination was done at screening and week 16. UHDRS scores, vital signs, adverse event assessment, and safety laboratory tests were repeated at all visits. Blood was collected for serum creatine levels and serum 8-hydroxy-2′-deoxyguanosine (8OH2′dG), a measure of oxidative injury affecting DNA. The later was analyzed in the samples from two sites. Magnetic resonance spectroscopy (MRS; STEAM; TR/TE=6000/20 milliseconds) of frontal cortex (voxel size=56 cc) and occipital cortex (voxel size=18 cc) performed at one site was analyzed for this report. Subject compliance was assessed by wafer counts.

In the case of `CN(CC(=O)O)C(=N)N` [Creatine, creatine monohydrate], the “Dose at which serum creatine levels reached a plateau” value ([1]; human) was 30-35 grams/day, the “Brain levels of creatine in the frontal cortex by MRI spectroscopy” value [1] was “continued increases” and the “Effect on rate of caudate volume loss, rate of putamen volume loss, total brain volume” value (cortical thinning in HD; caudate p=0.67) was “no effect”. The “Slowing of the rate of cortical thinning” value (cortical thinning in HD; several cortical regions statistically significant, longitudinal data on 6 of 10 subjects) was about 30%, the “Increase in absolute creatine concentration by MRS” value ([2]; frontal cortex) was 7.5% and the concentration at 16 weeks ([2]; human, serum, oral, 8 g/day, week 16, baseline 46.4 (SD=35.7), SD=259.9, read-out: Average serum creatine level) was 382 µM. For the same compound, the concentration at 24 weeks ([2]; human, serum, oral, at washout after 8 g/day for 16 weeks, SD=29.5, read-out: Average serum creatine level) was 51.8 µM and the “Increase in absolute creatine concentration by MRS” value ([2]; occipital cortex) was 13%.
